Measured values from patent US20240148831A1, “COMBINATION TREATMENTS FOR CHOLESTASIS” (THE BOARD OF REGENTS OF THE UNIVERSITY OF OKLAHOMA, priority 2022, published 2024).

Columns and labels:
Assay type in all cases: in vivo
[1] = tested on: Cyp2c70 KO mice; experiment: Gut barrier integrity (colon H&E and ZO-1 immunohistochemistry) in Cyp2c70 KO mice; settings: 4 weeks
Text: (§1) The Cyp2c70 KO mice with Exon 4 deletion were generated by CRISPR/Cas-mediated genome engineering. Cas9 and gRNA (gRNA1 matching reverse strand of the Cyp2c70 gene: […] (SEQ ID NO:1); gRNA2 matching forward strand of the Cyp2c70 gene: […] (SEQ ID NO:2)) were co-injected into fertilized eggs of C57BL/6J mice. One F0 male founder mouse was identified by PCR followed by sequencing analysis to confirm deletion of an 888 bp genome region containing the entire Exon 4. This F0 founder was bred to a WT C57BL/6J mouse to obtain 3 F1 Cyp2c70+/−females confirming germline transmission. Further breeding of the F1 females with WT C57BL/6J mice (the Jackson Lab, Bar Harbor, ME) yielded WT mice and Cyp2c70+/−mice. Subsequent breeding of the Cyp2c70+/−offspring yielded WT mice and Cyp2c70−/− mice (Cyp2c70 KO). The Cyp2c70 KO mice were then bred via KO×KO breeding scheme. The WT littermates were used to generate WT mice via WT×WT breeding scheme. […] Mice were housed in micro-isolator cages with Biofresh performance bedding (Pelleted cellulose) under 7 AM-7 PM light cycle and 7 PM-7 AM dark cycle. GSK was mixed with chow diet to achieve an estimated 5 mg/kg/day intake based on 5 g/day food intake by a 25 g mouse. AAV-Null or AAV-FGF15 was injected via tail vein at a dose of 1×10^11 GC/mouse. Mice were euthanized following a 6 h fast from 9 am to 3 pm. Animals received humane care according to the criteria outlined in the “Guide for the Care and Use of Laboratory Animals.” All animal protocols were approved by the Institutional Animal Care and Use Committee of the University of Oklahoma Health Sciences Center.
Liver tissues and colon tissues were fixed in 4% paraformaldehyde and paraffin embedded. Hematoxylin and Eosin (H&E) staining was performed with an automated stainer. Sirius Red staining was performed with Direct Red 80 solution (Sigma #365548, St. Louis, MO). […]

[2] = tested on: Cyp2c70 KO mice; experiment: Bile acid metabolism (fecal total bile acids, bile acid pool, gallbladder bile acid composition, liver CYP7A1/CYP8B1 mRNA) in Cyp2c70 KO mice
Text: as §1
(§2) Bile acids were extracted from liver, whole gallbladder bile, whole small intestine with content, and dried feces in 90% ethanol. To collect fecal sample, an individual mouse was placed in a jar briefly and fresh feces were collected. Total bile acid amount was measured by a bile acid assay kit. Bile acid pool was calculated as the total bile acids in liver, gallbladder and small intestine. Bile acid composition in the gallbladder bile and the pooled fecal extracts was analyzed on a Thermo Scientific UltiMate 3000 UHPLC with a Waters Cortecs C18 column and a TSQ Quantis triple quadrupole mass spectrometer. Standard curves for bile acids and internal standard glycine-CDCA-d4 were generated with purified compounds and relative area under the curve (AUC) was calculated. To measure T-CDCA-d4 metabolism in fecal slurry mixtures, pooled fresh fecal sample from each group was resuspended in a reaction buffer consisting of 10% PBS (pH=7.4) and 90% 3 mM sodium acetate (pH=5.2) to a final suspension of 4 mg fecal sample/ml. T-CDCA-d4 was added to a final concentration of 20 ug/ml and the mixture was incubated at 37° C. for 6 h. An equal amount of methanol was added and the mixture was incubated on ice for 1 h to precipitate protein. After centrifugation, an aliquot of the supernatant was vacuum dried and resuspended in injection buffer (0.1% formic acid, 30% acetonitrile, 70% HPLC water), which was used for LC-MS measurement of bile acids as described above.
Total liver RNA was purified with Trizol (Sigma-Aldrich, St. Louis, MO). Reverse transcription was performed by using Oligo dT primer and SuperScript III reverse transcriptase (ThermoFisher Scientific, Grand Island, NY). Real-time PCR was performed on a Bio-Rad CFX384 Real-time PCR system with iQ SYBR Green Supermix (Bio-Rad, Hercules, CA). 18S was measured and used for normalization. The comparative CT (Ct) method was used to determine the relative mRNA expression with the control group arbitrarily set as “1”.

[3] = tested on: Cyp2c70 KO mice; experiment: Fecal bile acid composition and concentration by LC-MS in Cyp2c70 KO mice; settings: 4 weeks
Text: as §1, §2

[4] = tested on: Cyp2c70 KO mice; experiment: Liver histopathology, serum transaminases and liver mRNA markers after 4 weeks of treatment in Cyp2c70 KO mice; settings: female Cyp2c70 KO mice
Text: as §1
Liver tissues and colon tissues were fixed in 4% paraformaldehyde and paraffin embedded. Hematoxylin and Eosin (H&E) staining was performed with an automated stainer. Sirius Red staining was performed with Direct Red 80 solution (Sigma #365548, St. Louis, MO). For immunohistochemistry, paraffin embedded tissues were deparaffinized and rehydrated, and after antigen retrieval, […] sections were incubated first with blocking buffer (5% BSA and 5% goat serum in PBS) for 1 h and then blocking buffer containing primary antibodies overnight at 4° C. After washing with PBS, the sections were incubated with secondary antibodies in SignalStain® Boost IHC Detection Reagent (Cell Signaling, #8114, Danvers, MA) for 1 h. Signal was then visualized using a DAB kit (Cell Signaling, #11724, Danvers, MA). The sections were counterstained with Hematoxylin. Images are acquired by using an EVOS M5000 imaging system (ThermoFisher Scientific, Grand Island, NY).
Total liver RNA was purified with Trizol (Sigma-Aldrich, St. Louis, MO). […] 18S was measured and used for normalization. […]

[5] = female Cyp2c70 KO mice, vs untreated mice

## CCCC[C@]1(CC)CS(=O)(=O)c2cc(CNC(CC(=O)O)CC(=O)O)c(OC)cc2[C@@H](c2ccccc2)N1 [GSK, GSK2330672]
[1]; female Cyp2c70 KO mice
  colon ZO-1 level (immunohistochemistry): failed to restore
[1]; male Cyp2c70 KO mice
  colon ZO-1 level (immunohistochemistry): failed to restore
[1]; male and female Cyp2c70 KO mice
  histological features of the colon epithelium (H&E): did not reveal abnormal histological features
[2]; female Cyp2c70 KO mice, 4 weeks
  hepatic CYP8B1 expression: markedly increased
[2]; female Cyp2c70 KO mice, 4 weeks, untreated printed as −70%
  gallbladder T-CDCA abundance: ~40%
[2]; female Cyp2c70 KO mice, 4 weeks, untreated ~1%
  gallbladder T-DCA abundance: ~30%
[2]; female Cyp2c70 KO mice, 4 weeks, vs untreated
  gallbladder T-CA abundance: without affecting
[2]; female Cyp2c70 KO mice, after 2 weeks treatment
  increase of fecal bile acid loss (excretion): ~2 fold
[2]; female Cyp2c70 KO mice, after 4 weeks of treatment
  reduction of total bile acid pool: ~40%
[2]; male Cyp2c70 KO mice, 4 weeks
  gallbladder T-DCA abundance: increasing
  liver CYP7A1 mRNA expression: induction
  liver CYP8B1 mRNA expression: induction
[2]; male Cyp2c70 KO mice, after 2 weeks of treatment
  fecal bile acid excretion: increased
[2]; male Cyp2c70 KO mice, after 4 weeks of treatment
  reduction of bile acid pool size: ~60%
[3]; female Cyp2c70 KO mice
  fecal DCA abundance (relative): increased
[3]; female Cyp2c70 KO mice, untreated ~90% LCA
  fecal LCA abundance (relative): slightly reduced
[3]; [5]
  fecal DCA amount (absolute): higher
  fecal LCA amount (absolute): higher
[3]; male Cyp2c70 KO mice
  fecal DCA amount: increased
  fecal LCA amount: did not increase
[4]; 4 weeks of treatment
  reduction of liver p21 mRNA: did not affect
  serum transaminases (ALT, AST): not altered
[4]; 4 weeks of treatment from 12 weeks of age, F4/80, CK19, H&E stain
  portal inflammation (inflammatory infiltration) and ductular reaction: largely ineffective
[4]; 4 weeks of treatment, Sirius Red stain
  portal fibrosis: largely ineffective
